pIC50: −log10 of the molar value.
Legend:
PDIA1 [1] = target: T1, PDIA1 (Homo sapiens, UniProt P07237); assay: Glutathione reduction assay (di-E-GSSG), disulfide reductase activity; type: biochemical; settings: di-E-GSSG substrate, PDIA1 20 nM, reducing conditions
T1 construct: The mature human PDIA1 with an N-terminal His6x-tag was expressed and purified; His6 (N); made in house
Experimental: (§1) The enzymatic activity of PDIA proteins was evaluated by glutathione reduction and insulin turbidity assays. PDIA1 and PDIA3 are proteins capable of catalyzing oxidation-reduction and isomerization reactions through thiol groups and disulfide bonds. Because the action of punicalagin on the reductase activity of the two proteins was previously evaluated by glutathione reduction assay, the same assay was repeated using punicalin to compare the effect of both molecules on PDIs.
(§2) Di-eosin glutathione disulfide (di-E-GSSG) was synthesized by the reaction of eosin isothiocyanate with oxidized glutathione (GSSG) and used as a fluorogenic substrate of PDIs to monitor disulfide reductase activity according to the method of Raturi and Mutus, with some modifications. Protein activity was evaluated by monitoring the emission fluorescence increase (λem = 545 nm and λex = 525 nm), and the effect of punicalin (concentration ranging from 2 to 50 µM) was tested.
(§3) In both assays, the inhibition constants were extrapolated by GraphPad Prism 8.0 software (GraphPad Software, San Diego, CA, USA), plotting the obtained data as logarithm dose–response curves.

PDIA3 [2] = target: T2, PDIA3 (Homo sapiens, UniProt P30101); assay: as above; type: biochemical; settings: di-E-GSSG substrate, PDIA3 20 nM, reducing conditions
T2 construct: The mature recombinant form (devoid of the N-terminal presence) of the human PDIA3 protein was expressed and purified; made in house
T2 sequence (P30101 25-505): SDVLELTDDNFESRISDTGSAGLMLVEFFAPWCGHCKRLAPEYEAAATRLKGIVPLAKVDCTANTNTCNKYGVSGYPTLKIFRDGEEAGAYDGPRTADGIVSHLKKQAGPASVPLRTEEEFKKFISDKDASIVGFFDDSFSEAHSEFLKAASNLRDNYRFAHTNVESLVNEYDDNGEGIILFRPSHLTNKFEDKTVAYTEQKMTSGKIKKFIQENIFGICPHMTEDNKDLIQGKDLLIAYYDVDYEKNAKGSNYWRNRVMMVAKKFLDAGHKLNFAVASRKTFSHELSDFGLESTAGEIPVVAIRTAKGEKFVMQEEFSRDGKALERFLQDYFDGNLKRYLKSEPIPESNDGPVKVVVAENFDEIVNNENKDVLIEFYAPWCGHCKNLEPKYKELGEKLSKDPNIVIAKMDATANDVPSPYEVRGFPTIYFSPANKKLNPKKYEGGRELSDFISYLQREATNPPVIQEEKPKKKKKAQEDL
Experimental: as §1, §2, §3

PDIA1 [3] = target: T1, PDIA1; assay: Insulin turbidity assay, disulfide reductase activity; type: biochemical; settings: insulin substrate, PDIA1 800 nM, reducing conditions
Experimental: (§4) To further evaluate the inhibitory effect of punicalin and punicalagin on the enzymatic activity of the two proteins, we performed a different assay using insulin, a physiologically more appropriate substrate. The results obtained are reported in Figure 4 and show again a lesser inhibitory effect of punicalin compared to punicalagin, as observed with the glutathione-based assay.
PDI disulfide reductase activity was assayed by measuring the reduction of insulin catalyzed by PDIs with DTT. A 50 μM stock solution of each PDI was reduced using TCEP (5 mM final concentration) for 90 min at room temperature. […] After incubation, an equal volume of the 2× reaction mixture (consisting of DTT 50 μM and human insulin 0.32 mM) was added. Protein activity was evaluated by monitoring the increase in turbidity of the solutions at 600 nm.
as §3

U87 MG cells = assay: Cell counting (crystal violet); type: cell-based, human; settings: 5 µM and 20 µM, 24 h, 48 h, 72 h
Experimental: The number of cells was evaluated after 24 h, 48 h, and 72 h of treatment with punicalin at the concentration of 5 µM and 20 µM (Figure 5b). […] However, an increase in the cell number occurred after 72 h of treatment with punicalin at a 5 µM concentration.
T98G and U-87 MG cells were seeded into 12-well plates (70,000 cells/well) and treated with 5 µM and 20 µM concentrations of punicalin for 24 h, 48 h, and 72 h. At the end of incubation, the cells were washed with PBS (Sigma-Aldrich, cat. D8662), fixed with cold methanol for 20 min, stained with 0.1% crystal violet in methanol/PBS (ratio 1:4) at room temperature for 1 h, and washed again in PBS. To estimate the number of cells remaining in each well, the crystal violet was solubilized by adding a methanol/water solution (50% v/v) and the absorbance at 595 nm was measured.

PDIA3 [4] = target: T2, PDIA3; assay: Insulin turbidity assay, disulfide reductase activity; type: biochemical; settings: insulin substrate, PDIA3 1600 nM, reducing conditions
Experimental: as §4
PDI disulfide reductase activity was assayed by measuring the reduction of insulin catalyzed by PDIs with DTT. A 50 μM stock solution of each PDI was reduced using TCEP (5 mM final concentration) for 90 min at room temperature. Aliquots of the stock solution were diluted in the incubation mixture (PDIA1 1.6 µM and PDIA3 3.2 µM) containing sodium phosphate buffer (100 mM sodium phosphate, 2 mM EDTA, pH 7.0) added with punicalin/punicalagin (concentration ranging from 0 to 50 µM) and incubated at 37 °C for 1 h. After incubation, an equal volume of the 2× reaction mixture (consisting of DTT 50 μM and human insulin 0.32 mM) was added. Protein activity was evaluated by monitoring the increase in turbidity of the solutions at 600 nm.
as §3

T1 sequence (P07237 18-508): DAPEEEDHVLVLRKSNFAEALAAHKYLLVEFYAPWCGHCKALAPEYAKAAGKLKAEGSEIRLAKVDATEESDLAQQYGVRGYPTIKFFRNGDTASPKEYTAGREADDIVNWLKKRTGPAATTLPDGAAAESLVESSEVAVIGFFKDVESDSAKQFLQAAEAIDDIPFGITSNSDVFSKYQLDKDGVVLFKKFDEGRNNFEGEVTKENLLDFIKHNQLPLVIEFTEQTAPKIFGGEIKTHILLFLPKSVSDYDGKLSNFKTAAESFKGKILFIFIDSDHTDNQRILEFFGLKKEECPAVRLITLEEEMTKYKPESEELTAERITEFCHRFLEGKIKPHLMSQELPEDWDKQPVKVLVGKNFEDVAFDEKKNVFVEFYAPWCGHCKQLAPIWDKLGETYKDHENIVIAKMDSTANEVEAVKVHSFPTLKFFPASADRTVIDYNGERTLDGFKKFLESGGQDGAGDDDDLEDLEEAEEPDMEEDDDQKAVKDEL

- pIC50 (PDIA1 [1]): 4.23
- pIC50 (PDIA3 [2]): 4.97
- pIC50 (PDIA1 [3]): < 3.60
- pIC50 (PDIA3 [4]): 4.54
Structure (SMILES): O=C1OC[C@H]2OC(O)[C@H](O)[C@@H](O)[C@@H]2OC(=O)c2cc(O)c(O)c(O)c2-c2c(O)c(O)c3oc(=O)c4c(c(O)c(O)c5oc(=O)c2c3c54)-c2c1cc(O)c(O)c2O (mixture of isomers) [Punicalin, punicalin]
- effect on cell number (U87 MG cells): the effect is evident only at the highest concentration used

— article PMC11476419, “Analysis of Punicalin and Punicalagin Interaction with PDIA3 and PDIA1” (International Journal of Molecular Sciences, 2024)
